Patent US5274118A, “Process for preparing (2R)-methyl-4,4,4-trifluorobutylamine” (Imperial Chemical Industries PLC, priority 1990, dated 1993)

Experiments:
[1] = molecular target: T1, leukotrienes LTC4, LTD4 and/or LTE4 (Cavia porcellus, UniProt Q2NNR5); assay: receptor-ligand binding assay described by Aharony; conditions: typically determined
T1 construct: from tissue
T1 sequence (Q2NNR5 1-340): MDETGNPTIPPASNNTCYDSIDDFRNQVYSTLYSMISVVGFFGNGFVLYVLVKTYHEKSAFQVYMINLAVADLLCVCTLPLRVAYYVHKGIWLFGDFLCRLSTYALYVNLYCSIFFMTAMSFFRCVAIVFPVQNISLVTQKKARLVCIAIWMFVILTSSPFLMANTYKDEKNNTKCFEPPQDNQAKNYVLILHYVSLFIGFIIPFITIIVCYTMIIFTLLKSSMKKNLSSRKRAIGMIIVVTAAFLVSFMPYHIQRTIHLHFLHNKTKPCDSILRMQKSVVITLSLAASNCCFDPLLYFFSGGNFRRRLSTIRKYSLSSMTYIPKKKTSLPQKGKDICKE

leukotriene LTD4 = assay: guinea-pig aerosol test (LTD4 aerosol challenge, onset of dyspnea); assay type: in vivo; conditions: guinea-pigs
Experimental: According to this procedure, guinea-pigs are pre-dosed with test compound as a solution in poly(ethylene glycol) (generally 1 hour) before an aerosol challenge of leukotriene LTD4 (starting with 2 ml of a 30 microgram/ml solution) and the effect of the test compound on the average time of leukotriene initiated change in breathing pattern (such as onset of dyspnea) recorded and compared with that in undosed, control guinea-pigs. Percent protection engendered by a test compound was calculated from the time delay to the onset of dyspnea compared to that for control animals.

Ki [1]: 0.398 nM
Compound: COc1cc(C(=O)NS(=O)(=O)c2ccccc2C)ccc1Cc1cn(C)c2ccc(C(=O)NC[C@H](C)CC(F)(F)F)cc12 [compound of formula I substantially in the form of the (R)-enantiomer, (R)-3-Methoxy-4-[1-methyl-5-(2-methyl-4,4,4-trifluorobutylcarbamoyl)indol-3-ylmethyl]-N-(2-methylphenylsulfonyl)benzamide]
ED50 (leukotriene LTD4; Cavia porcellus, oral administration, pre-dosed generally 1 hour before LTD4 aerosol challenge, read-out: ED50 (protection against LTD4-induced dyspnea)): 1.1 µmol/kg | untoward side-effects (leukotriene LTD4; oral, at several multiples of the minimum effective dose): without any indication of untoward side-effects
